Measurements from PubChem BioAssay AID256 (DTP/NCI, 2004).
Inconclusive results and toxic doses are left out.

System: CD2F1 mice, L1210 leukemia ip, survival T/C
Experiment: NCI In Vivo Anticancer Drug Screen. Data for tumor model L1210 Leukemia (intraperitoneal) in CD2F1 (CDF1) mice
Settings: higher = longer survival
Summary of the method: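 Implant tumor; dose compound or vehicle; measure endpoint in both groups; report treated divided by control.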

[1] = endpoint: mean survival time, dose: 100.0 mg/kg/injection, schedule: Q04DX003 (ip), vehicle: saline
[2] = endpoint: mean survival time, dose: 200.0 mg/kg/injection, schedule: Q04DX003 (ip), vehicle: saline
[3] = endpoint: mean survival time, dose: 100.0 mg/kg/injection, schedule: Q01DX001 (ip), vehicle: saline with Tween-80
[4] = endpoint: mean survival time, dose: 200.0 mg/kg/injection, schedule: Q01DX001 (ip), vehicle: saline with Tween-80
[5] = endpoint: mean survival time, dose: 400.0 mg/kg/injection, schedule: Q01DX001 (ip), vehicle: saline with Tween-80
[6] = endpoint: mean survival time, dose: 100.0 mg/kg/injection, schedule: Q01DX009 (ip), vehicle: saline with Tween-80
[7] = endpoint: mean survival time, dose: 200.0 mg/kg/injection, schedule: Q01DX009 (ip), vehicle: saline with Tween-80
[8] = endpoint: mean survival time, dose: 400.0 mg/kg/injection, schedule: Q01DX009 (ip), vehicle: saline with Tween-80

## CCCC(=O)Nc1ncnc2c1nc(NC(=O)CCC)n2C1OC2COP(=O)(O)OC2C1OC(=O)CCC (stereo not drawn)
endpoint: mean survival time, dose: 6.25 mg/kg/injection, schedule: Q01DX005 (ip), vehicle: water
  T/C: 97 % of control
endpoint: mean survival time, dose: 12.5 mg/kg/injection, schedule: Q01DX005 (ip), vehicle: water
  T/C: 104 % of control
endpoint: mean survival time, dose: 25.0 mg/kg/injection, schedule: Q01DX005 (ip), vehicle: water
  T/C: 93 % of control
endpoint: mean survival time, dose: 50.0 mg/kg/injection, schedule: Q01DX005 (ip), vehicle: water
  T/C: 97 % of control
endpoint: mean survival time, dose: 100.0 mg/kg/injection, schedule: Q01DX005 (ip), vehicle: water
  T/C: 93 % of control

## O=C1O/C(=C\c2ccccc2)c2ccccc21
[1]
  T/C: 104 % of control
[2]
  T/C: 104 % of control
endpoint: mean survival time, dose: 400.0 mg/kg/injection, schedule: Q04DX003 (ip), vehicle: saline
  T/C: 98 % of control

## O=[N+]([O-])c1cc(Br)ccc1P(=O)(O)O
endpoint: mean survival time, dose: 50.0 mg/kg/injection, schedule: Q04DX003 (ip), vehicle: saline
  T/C: 95 % of control
[1]
  T/C: 96 % of control
[2]
  T/C: 93 % of control

## COc1ccc2c(c1)CCC1C(=O)NN=C21 (stereo not drawn)
endpoint: mean survival time, dose: 100.0 mg/kg/injection, schedule: Q04DX002 (ip), vehicle: saline with Tween-80
  T/C: 103 % of control
endpoint: mean survival time, dose: 200.0 mg/kg/injection, schedule: Q04DX002 (ip), vehicle: saline with Tween-80
  T/C: 103 % of control
endpoint: mean survival time, dose: 400.0 mg/kg/injection, schedule: Q04DX002 (ip), vehicle: saline with Tween-80
  T/C: 103 % of control

## O=[N+]([O-])c1ccc(Oc2nc(Cl)nc(Oc3ccc([N+](=O)[O-])cc3)n2)cc1
endpoint: mean survival time, dose: 25.0 mg/kg/injection, schedule: Q04DX003 (ip), vehicle: Klucel (hydroxypropylcellulose) (HPC)
  T/C: 93 % of control
endpoint: mean survival time, dose: 50.0 mg/kg/injection, schedule: Q04DX003 (ip), vehicle: Klucel (hydroxypropylcellulose) (HPC)
  T/C: 93 % of control
endpoint: mean survival time, dose: 100.0 mg/kg/injection, schedule: Q04DX003 (ip), vehicle: Klucel (hydroxypropylcellulose) (HPC)
  T/C: 86 % of control

## CSCC12CCCC=C1CC1(CC2)OCCO1 (stereo not drawn)
[3]
  T/C: 96 % of control
[4]
  T/C: 96 % of control
[5]
  T/C: 96 % of control

## O=C1C=CN(C2OC(CO)C(O)C2O)C(=O)C1 (stereo not drawn)
endpoint: mean survival time, dose: 6.25 mg/kg/injection, schedule: Q01DX009 (ip), vehicle: saline with Tween-80
  T/C: 120 % of control
endpoint: mean survival time, dose: 12.5 mg/kg/injection, schedule: Q01DX009 (ip), vehicle: saline with Tween-80
  T/C: 124 % of control
endpoint: mean survival time, dose: 75.0 mg/kg/injection, schedule: Q01DX005 (ip), vehicle: saline
  T/C: 113 % of control
[6]
  T/C: 102 % of control
endpoint: mean survival time, dose: 150.0 mg/kg/injection, schedule: Q01DX005 (ip), vehicle: saline
  T/C: 122 % of control
endpoint: mean survival time, dose: 150.0 mg/kg/injection, schedule: Q01DX005 (iv), vehicle: saline
  T/C: 124 % of control
[7]
  T/C: 113 % of control
endpoint: mean survival time, dose: 300.0 mg/kg/injection, schedule: Q01DX005 (ip), vehicle: saline
  T/C: 101 % of control
endpoint: mean survival time, dose: 300.0 mg/kg/injection, schedule: Q01DX005 (iv), vehicle: saline
  T/C: 116 % of control
[8]
  T/C: 93 % of control
endpoint: mean survival time, dose: 600.0 mg/kg/injection, schedule: Q01DX005 (ip), vehicle: saline
  T/C: 119 % of control
endpoint: median survival time, dose: 12.5 mg/kg/injection, schedule: Q01DX009 (ip), vehicle: saline
  T/C: 121 % of control
endpoint: median survival time, dose: 25.0 mg/kg/injection, schedule: Q01DX009 (ip), vehicle: saline
  T/C: 172 % of control
endpoint: median survival time, dose: 75.0 mg/kg/injection, schedule: Q01DX009 (ip), vehicle: saline
  T/C: 113 % of control

## Cc1cc(I)ccc1NC(=S)Nc1ccccc1F
endpoint: mean survival time, dose: 50.0 mg/kg/injection, schedule: Q01DX009 (ip), vehicle: saline with Tween-80
  T/C: 93 % of control
[3]
  T/C: 100 % of control
[6]
  T/C: 90 % of control
[4]
  T/C: 96 % of control
[7]
  T/C: 93 % of control
[5]
  T/C: 96 % of control

## CC(=O)Nc1ccc(/C=N/NC(=O)CNC(=O)Nc2ccc(Cl)c(Cl)c2)cc1
[6]
  T/C: 95 % of control
[7]
  T/C: 100 % of control
[8]
  T/C: 109 % of control
